This note sets out measurements from ChEMBL document CHEMBL1143455 (Bioorg Med Chem Lett, 2005).

Test [1] has as its target T1, Prostaglandin G/H synthase 2 (Mus musculus, UniProt Q05769).
T1 sequence (Q05769 whole entry): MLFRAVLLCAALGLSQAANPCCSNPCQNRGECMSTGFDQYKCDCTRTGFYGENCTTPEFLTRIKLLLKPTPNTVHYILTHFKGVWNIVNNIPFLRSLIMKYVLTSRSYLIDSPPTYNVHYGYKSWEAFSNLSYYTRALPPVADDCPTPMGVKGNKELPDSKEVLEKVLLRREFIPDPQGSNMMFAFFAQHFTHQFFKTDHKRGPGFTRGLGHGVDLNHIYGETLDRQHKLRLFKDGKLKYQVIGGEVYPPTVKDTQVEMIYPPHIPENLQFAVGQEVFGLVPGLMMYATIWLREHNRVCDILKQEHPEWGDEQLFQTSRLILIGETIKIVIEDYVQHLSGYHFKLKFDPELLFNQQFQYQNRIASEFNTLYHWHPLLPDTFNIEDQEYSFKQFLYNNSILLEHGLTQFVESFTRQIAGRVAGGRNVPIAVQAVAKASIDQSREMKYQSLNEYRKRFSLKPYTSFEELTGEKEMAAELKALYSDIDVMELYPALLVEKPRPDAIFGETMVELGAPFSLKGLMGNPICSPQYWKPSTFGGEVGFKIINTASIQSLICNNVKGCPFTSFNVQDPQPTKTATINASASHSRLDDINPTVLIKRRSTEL
As to the kind of experiment: Tested for prostaglandin E2 production as a function of COX-2 inhibition using endotoxin-treated murine RAW 264.7 macrophages. It counts as functional.

Test [2] concerns the target T2, Prostaglandin G/H synthase 2 (Homo sapiens, UniProt P35354).
T2 sequence (P35354 whole entry): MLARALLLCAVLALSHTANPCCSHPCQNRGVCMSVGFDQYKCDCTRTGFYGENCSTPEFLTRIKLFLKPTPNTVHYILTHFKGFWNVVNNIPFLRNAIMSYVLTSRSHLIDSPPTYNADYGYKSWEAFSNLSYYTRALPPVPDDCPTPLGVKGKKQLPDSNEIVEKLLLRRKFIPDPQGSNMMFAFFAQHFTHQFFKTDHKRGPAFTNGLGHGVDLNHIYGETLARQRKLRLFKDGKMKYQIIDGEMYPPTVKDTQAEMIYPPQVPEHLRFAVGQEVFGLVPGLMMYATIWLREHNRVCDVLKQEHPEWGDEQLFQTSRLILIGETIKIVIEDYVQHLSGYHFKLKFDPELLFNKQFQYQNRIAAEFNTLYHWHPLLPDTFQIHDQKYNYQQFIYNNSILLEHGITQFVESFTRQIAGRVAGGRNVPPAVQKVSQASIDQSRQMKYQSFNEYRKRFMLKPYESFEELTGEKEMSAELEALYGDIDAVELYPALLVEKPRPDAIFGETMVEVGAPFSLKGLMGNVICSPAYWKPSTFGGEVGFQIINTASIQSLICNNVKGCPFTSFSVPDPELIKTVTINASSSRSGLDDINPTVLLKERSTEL
Description: Inhibitory activity against human recombinant cyclooxygenase 2

Turning to `NS(=O)(=O)c1ccc(-c2c(-c3ccccc3)noc2CCF)cc1`, the IC50 was determined as 2 nM in test [1] and 8 nM in test [2].
For `Cc1onc(-c2ccccc2)c1-c1ccc(S(N)(=O)=O)c(F)c1`, the IC50 in test [1] is 2 nM.
Still for that read-out and setting: for `NS(=O)(=O)c1ccc(-c2c(-c3ccccc3)noc2CF)cc1` the value was 2 nM.
Regarding `Cc1onc(-c2ccc(F)cc2)c1-c1ccc(S(N)(=O)=O)cc1`, 2 nM corresponded to half-maximal inhibition in test [1] (IC50).
